Consider ten molecules from PubChem BioAssay (NCI).

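The compound was tested at five concentrations on cells cultured in 96-well plates, with a 48-hour exposure period. TGI marks complete inhibition of growth.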

Test systems include HCC-2998 colon; HCT-116 colon; HL-60(TB) leukemia; LOX IMVI melanoma; NCI/ADR-RES ovarian; OVCAR-4 ovarian; PC-3 prostate; RPMI-8226 leukemia; SK-MEL-5 melanoma; SNB-19 CNS; SW-620 colon; U251 CNS; UACC-62 melanoma; UO-31 renal.
Holding throughout (assay): NCI anticancer screen, dose series, 48 h

Consider `COc1cc2c(cc1OC)C(=O)N(c1ccc(O)cc1)C2=O`, for which the TGI in the assay with HCC-2998 colon, in the assay on HCT-116 colon, in the assay with HL-60(TB) leukemia, in the assay with LOX IMVI melanoma, in the assay on NCI/ADR-RES ovarian and with OVCAR-4 ovarian was more than 100 µM in each case. For the same molecule, the TGI in the assay with PC-3 prostate, with RPMI-8226 leukemia, in the assay on SK-MEL-5 melanoma, in the assay with SNB-19 CNS, with SW-620 colon and with U251 CNS was more than 100 µM throughout. In the assay on UACC-62 melanoma, this molecule came in with a TGI of more than 100 µM.
For the molecule `O=S(=O)(Nc1nc2ccccc2nc1Nc1ccc2ccccc2c1)c1ccccc1`, the TGI in the assay with HCC-2998 colon is 29 µM; with HCT-116 colon, 24.8 µM; with HL-60(TB) leukemia, 68.9 µM; with LOX IMVI melanoma it was 48.8 µM; with NCI/ADR-RES ovarian, more than 100 µM; in the assay with OVCAR-4 ovarian, more than 44.9 µM. The TGI with PC-3 prostate is more than 37.2 µM; in the assay with RPMI-8226 leukemia, more than 47 µM; in the assay with SK-MEL-5 melanoma it was 42.6 µM; in the assay on SNB-19 CNS it was more than 100 µM; in the assay on SW-620 colon it was more than 100 µM; in the assay with U251 CNS, more than 100 µM. For the same molecule, the TGI came to 43.8 µM with UACC-62 melanoma and 39.5 µM in the assay with UO-31 renal.
Turning to `CC(C)(C)OC(=O)NC1CC2(C=C(Br)C(=O)C(Br)=C2)OC1=O` (stereo not given), the TGI was 24.7 µM in the assay with HCC-2998 colon; 9.21 µM in the assay with HCT-116 colon; 7.65 µM with HL-60(TB) leukemia; 33.4 µM in the assay on LOX IMVI melanoma; 34.8 µM with NCI/ADR-RES ovarian; 24.1 µM in the assay with OVCAR-4 ovarian. The TGI is 27.3 µM with PC-3 prostate; 4.21 µM in the assay with RPMI-8226 leukemia; 31.1 µM with SK-MEL-5 melanoma; 38.6 µM with SNB-19 CNS; 5.79 µM in the assay with SW-620 colon; 31.7 µM in the assay with U251 CNS. The TGI with UACC-62 melanoma worked out at 32.4 µM; in the assay on UO-31 renal it was 13.8 µM.
As for `COC(CN(C(C)=O)C1CCC2(SCCS2)c2[nH]c3ccccc3c21)OC` (stereo not given), the TGI is more than 100 µM in the assay on HCC-2998 colon; more than 100 µM in the assay with HCT-116 colon; more than 100 µM with HL-60(TB) leukemia; 1.71 µM with LOX IMVI melanoma; more than 100 µM in the assay on NCI/ADR-RES ovarian; more than 100 µM in the assay on OVCAR-4 ovarian. Moreover, the TGI with PC-3 prostate, with RPMI-8226 leukemia, in the assay with SK-MEL-5 melanoma, with SNB-19 CNS, in the assay with SW-620 colon and with U251 CNS was more than 100 µM each time. The same molecule displayed a TGI in the assay on UO-31 renal of more than 100 µM.
For the molecule `CCOC(=O)c1c(N=P(c2ccccc2)(c2ccccc2)c2ccccc2)nnc(-c2ccccc2)c1-c1ccccc1`, the TGI in the assay on HCC-2998 colon, in the assay with HCT-116 colon, in the assay on HL-60(TB) leukemia, with LOX IMVI melanoma, in the assay on NCI/ADR-RES ovarian and in the assay on OVCAR-4 ovarian was more than 100 µM in each case. For the same molecule, the TGI in the assay with PC-3 prostate, in the assay with SK-MEL-5 melanoma, in the assay with SNB-19 CNS, in the assay with SW-620 colon, in the assay with U251 CNS and in the assay with UACC-62 melanoma was more than 100 µM throughout. Moreover, the TGI with UO-31 renal was more than 100 µM.
For `CC1(C)OC2[C@@H](CO[C@@]3([C@@H](O)CCO)OC(C)(C)O[C@@H]23)O1` (stereo not given in full), the TGI with HCC-2998 colon, with HCT-116 colon, in the assay on HL-60(TB) leukemia, in the assay with LOX IMVI melanoma, in the assay with NCI/ADR-RES ovarian and in the assay with OVCAR-4 ovarian was more than 100 µM throughout. The TGI in the assay on PC-3 prostate, with RPMI-8226 leukemia, in the assay on SK-MEL-5 melanoma, in the assay on SNB-19 CNS, in the assay on SW-620 colon and in the assay on U251 CNS was more than 100 µM each time. Besides, the TGI with UACC-62 melanoma and in the assay on UO-31 renal was more than 100 µM in each case.
Consider `O=C(O)CCS/C(=C\C(SCCC(=O)O)c1ccc(Cl)cc1)c1ccc(Cl)cc1` (stereo not given), for which the TGI with HCC-2998 colon was 54.7 µM; with HCT-116 colon, 57.5 µM; in the assay with HL-60(TB) leukemia, more than 100 µM; in the assay with LOX IMVI melanoma, 63.1 µM; with NCI/ADR-RES ovarian it was more than 100 µM; with OVCAR-4 ovarian it was more than 100 µM. For the same molecule, the TGI in the assay on PC-3 prostate was more than 100 µM; with RPMI-8226 leukemia, 95.6 µM; with SK-MEL-5 melanoma, more than 100 µM; with SNB-19 CNS, more than 100 µM; in the assay on SW-620 colon, more than 100 µM; with U251 CNS, more than 100 µM. The TGI with UACC-62 melanoma is 38.4 µM; with UO-31 renal it was more than 100 µM.
Turning to `CSc1ccc(-c2cc(-c3nc4ccccc4[nH]3)no2)cc1`, the TGI in the assay on HCC-2998 colon was 32.1 µM; in the assay on HCT-116 colon it was more than 100 µM; with HL-60(TB) leukemia, 55.3 µM; in the assay with LOX IMVI melanoma, 80.1 µM; with NCI/ADR-RES ovarian, 64.1 µM; with OVCAR-4 ovarian, 19.3 µM. Besides, the TGI was more than 100 µM in the assay on PC-3 prostate; 98 µM with RPMI-8226 leukemia; 33.4 µM with SK-MEL-5 melanoma; more than 100 µM in the assay with SNB-19 CNS; more than 100 µM in the assay with SW-620 colon; 39.1 µM in the assay on UACC-62 melanoma. In addition, the TGI in the assay on UO-31 renal was 43.5 µM.
As for `C=C1C(=O)O[C@H]2C[C@@]3(COC(C)=O)C=COC=C(COC(=O)C(C)C)C3CC12` (stereo not given in full), the TGI is more than 100 µM with HCC-2998 colon; more than 100 µM with HCT-116 colon; 63.2 µM in the assay with HL-60(TB) leukemia; more than 100 µM in the assay with LOX IMVI melanoma; more than 100 µM with NCI/ADR-RES ovarian; more than 100 µM in the assay with PC-3 prostate. The TGI was 63.6 µM in the assay with RPMI-8226 leukemia; more than 100 µM in the assay on SK-MEL-5 melanoma; more than 100 µM in the assay with SNB-19 CNS; more than 100 µM in the assay with SW-620 colon; more than 100 µM in the assay with U251 CNS; 41.2 µM in the assay on UACC-62 melanoma. The TGI with UO-31 renal is more than 100 µM.
As for `Clc1ccc(C(c2ccccc2Cl)C(Cl)Cl)cc1` (stereo not given), the TGI in the assay on HCC-2998 colon amounted to 29.4 µM; in the assay with HCT-116 colon it was 31.4 µM; with HL-60(TB) leukemia, 51.5 µM; in the assay with LOX IMVI melanoma, 40.2 µM; in the assay with NCI/ADR-RES ovarian, 37.1 µM; with OVCAR-4 ovarian it was 35.7 µM. The TGI in the assay with PC-3 prostate was determined as 35.5 µM; in the assay on RPMI-8226 leukemia it was 49 µM; with SK-MEL-5 melanoma, 36.1 µM; with SNB-19 CNS it was 37.6 µM; in the assay with SW-620 colon, 39.2 µM; with U251 CNS, 36.8 µM. Also, the TGI in the assay on UACC-62 melanoma is 34.4 µM; in the assay on UO-31 renal, 37.4 µM.
